Reference: patent publication US9347179B2, “Methods of preserving starch in pulp and controlling calcium precipitation and/or scaling” (Buckman Laboratories International, Inc., priority 2012, dated 2016)

Test system: α-amylase (BUZYME 2508)
Assay: α-amylase activity test with RED-STARCH substrate in paper mill process water
Format: biochemical
Conditions: for effect on the α-amylase activity (in words): high demand solution containing α-amylase, NaOCl at between 10% to 50% of actual chlorine demand; for α-amylase activity: 15 minutes at 40° C. before substrate, 30 minutes at 40° C., percentage of the maximum reading
Procedure: In the experiments described below, amylase activity was measured using a synthetic α-amylase substrate, “RED-STARCH” obtained from MEGAZYME® (Ireland), and a test procedure developed that allows the use of this substrate in complex paper mill process waters including samples containing cellulose.
The indicated test procedure developed for testing paper mill samples for α-amylase activity includes preparation of the substrate by adding 1 g of powdered RED-STARCH substrate to 50 mL of 0.5 M KCl solution ([…]), and warming up to 60° C. whilst shaking vigorously until dissolved. The prepared substrate can be used fresh or stored under refrigeration until used. A concentrated assay buffer solution was prepared as a 300 mM CaCl2.2H2O solution (39.2 g/l), which for use, is diluted 200 times in the assay. Assays can be performed on any liquid sample recovered in a paper mill. Samples with high turbidity may interfere with the final measurement step. Accordingly, samples containing fiber can be filtered through a paper filter, and liquid from high consistency samples can be recovered by squeezing liquid from the sample. To perform the assay on a sample, 30 μl assay buffer, 3 ml RED-STARCH substrate solution, and a 3 ml test sample solution can be added to a 35 ml test vial, and mix and incubate the vial and contents at constant temperature (35-40° C.) for 30 minutes. The reaction is ended by adding 10 ml ethanol (denatured) or methanol and shaking vigorously, and then allowing the vial and its contents to stand for 2 minutes before filtering the contents through a paper filter. High molecular weight material can be removed by the filtering. Using a 10 ml syringe, the filtered liquid is passed through a 0.22 or 0.45 μm disposable filter cartridge. The liquid that passes through the cartridge is introduced into a spectrophotometer cuvette, and the absorbance (OD) of the reaction solution, and a separate reaction blank, are measured using a spectrophotometer. The reaction blank is prepared by adding 10 ml ethanol or methanol to a test vial first, then add 30 μl assay buffer, 3 ml red starch substrate solution, and a 3 ml test solution, and prepare the samples for measurement as above. The spectrophotometer can be a Hach DR/890 Colorimeter (Hach Company, Loveland Colo.), or other spectrophotometer device. Absorbance can be measured as optical density (OD). On incubation of the RED-STARCH substrate with α-amylase, the substrate can be depolymerized to produce low molecular weight dyed fragments which remain in solution on addition of alcohol to the reaction mixture. The measured value of OD is directly proportional to the α-amylase activity in the test sample. Most spectrophotometers have a scale that reads in OD (absorbance) units, which is a logarithmic scale. A user edited program can be entered into the DR/890 device, including choosing a wavelength of 510 nm at which absorbance is measured, using water as a blank (OD=0), and preparing a maximum α-amylase activity sample by adding a small amount of BUZYME® 2508 (Buckman Laboratories, Belgium) to water and using this in the assay (max. OD that can be measured is approximately 25). The range that is obtained with this program is very large and can suffice for all paper mill samples. Using this testing procedure, paper mill samples typically have absorbance values in the range of 1-7. If a sample gives a maximum reading, it can be diluted in water to determine a more precise value. Results can be represented as the actual number or as a percentage of the maximum reading of the procedure which is 25. The results in Table 1 below show results for α-amylase activity as a percentage of the maximum reading.
In the tests conducted, process water was used that was taken from a coated paper machine pulper fill water tank that was not being treated with an oxidizing program. First, the actual chlorine and monochloramine (NH2Cl) demands of this process water were determined (Table 1). […]

[1] = oxidant added at 10.0% of demand
[2] = oxidant added at 25.0% of demand
[3] = oxidant added at 50% of demand (NaOCl printed 50/0%)
[4] = oxidant added at 100.0% of demand

activity to inactivate amylases (in words) (in direct tests)	Structure (SMILES)	effect on the α-amylase activity (in words)	α-amylase activity [1] [%]	α-amylase activity [2] [%]	α-amylase activity [3] [%]	α-amylase activity [4] [%]
very efficient	OCl [NaOCl, sodium hypochlorite]	effective to reduce the α-amylase activity	99.2	87.4	43.8	2.1
–	NCl [NH2Cl, monochloramine]	no significant effect	100.0	98.5	99.3	99.1
